Measurements published in ChEMBL document CHEMBL4651402, “Screening of ~5500 FDA-approved drugs and clinical candidates for anti-SARS-CoV-2 activity” (2021).
Where a name gives a salt, the structure may show the parent alone. Peptide text beside a SMILES is read from it.

System: SARS-CoV-2
Experiment: microbe, parasite or virus in culture
Conditions: Severe acute respiratory syndrome coronavirus 2, Vero C1008, 48 h

Compound	IC50	IC50 (read-out: pIC50 (converted))
COc1cc(C)c2c(Oc3cccc(C(F)(F)F)c3)c(OC)cc(NC(C)CCCN)c2n1 (stereo not drawn) [TAFENOQUINE]	> 20 µM	> 20 µM
Nc1nc2[nH]cnc2c(=S)[nH]1 [THIOGUANINE]	> 20 µM	> 20 µM
NC1=NC(=O)C(c2ccccc2)O1 (stereo not drawn) [PEMOLINE]	> 20 µM	> 20 µM
CC1(C)C2CC[C@@]1(C)C(=O)C2	> 20 µM	> 20 µM
O=C(O)c1cc(=O)[nH]c(=O)[nH]1 [OROTIC ACID]	> 20 µM	> 20 µM
COc1c2c(cc3c1C(O)N(C)CC3)OCO2 (stereo not drawn)	> 20 µM	> 20 µM
NC(=O)c1ccc([N+](=O)[O-])cc1Cl [AKLOMIDE]	> 20 µM	> 20 µM
CCc1c(C)[nH]c2c1C(=O)C(CN1CCOCC1)CC2 (stereo not drawn) [MOLINDONE]	> 20 µM	> 20 µM
CCCN(CCC)CCc1ccc(O)c(O)c1	> 20 µM	> 20 µM
CCc1oc2ccccc2c1C(=O)c1cc(I)c(O)c(I)c1 [BENZIODARONE]	> 20 µM	> 20 µM
NCc1ccc(S(N)(=O)=O)cc1 [MAFENIDE]	> 20 µM	> 20 µM
COc1c2c(cc3c1OCO3)CCN(C)C2 [HYDROCOTARNINE]	> 20 µM	> 20 µM
O=P1(N(CCCl)CCCl)NCCCO1 (stereo not drawn) [CYCLOPHOSPHAMIDE ANHYDROUS]	> 20 µM	> 20 µM
CC(C)CN(C[C@@H](OP(=O)(O)O)[C@H](Cc1ccccc1)NC(=O)O[C@H]1CCOC1)S(=O)(=O)c1ccc(N)cc1 [FOSAMPRENAVIR]	> 20 µM	> 20 µM
c1ccc(C(CCN2CCCCC2)c2ccccc2)cc1	> 20 µM	> 20 µM
CN1CCOC(c2ccccc2)c2ccccc2C1 (stereo not drawn) [NEFOPAM]	> 20 µM	> 20 µM
O=c1sn(-c2cccc3ccccc23)c(=O)n1Cc1ccccc1 [TIDEGLUSIB]	> 20 µM	> 20 µM
O=C(N[C@H]1CCS[C@H]2CCC[C@@H](C(=O)O)N2C1=O)[C@@H](S)Cc1ccccc1 [OMAPATRILAT]	> 20 µM	> 20 µM
COC1C(C)OC(OC2C=C3CCC4C(CCC5(C)C(c6ccc(=O)oc6)CCC45O)C3(C)CC2)C(O)C1O (stereo not drawn)	> 20 µM	> 20 µM
CCCC(=O)OC1(C(=O)CO)CCC2C3CCC4=CC(=O)CCC4(C)C3C(O)CC21C (stereo not drawn)	> 20 µM	> 20 µM
O=[N+]([O-])c1ccc(NN=C(c2ccc(O)cc2)c2ccc(O)cc2)c([N+](=O)[O-])c1	> 20 µM	> 20 µM
CC(=O)Nc1cccc2c1c(Sc1ccc(Cl)cc1)c(C)n2CC(=O)O [AZD1981]	> 20 µM	> 20 µM

Compound	IC50	IC50 (read-out: pIC50 (converted))
Oc1ccc2c(c1)CC[C@H](c1ccccc1)[C@@H]2c1ccc(OCCN2CCCC2)cc1 [LASOFOXIFENE]	> 20 µM	> 20 µM
O=C(C[S+]([O-])Cc1ccco1)NC/C=C\COc1cc(CN2CCCCC2)ccn1 (stereo not drawn) [LAFUTIDINE]	> 20 µM	> 20 µM
O=[N+]([O-])c1cccc2cn[nH]c12 [7-NITROINDAZOLE]	> 20 µM	> 20 µM
CC(=O)N[C@@H](CC(=O)O)C(=O)N[C@@H](CCC(=O)O)C(=O)O [ISOSPAGLUMIC ACID] (Ac-Asp-Glu-OH)	> 20 µM	> 20 µM
Cc1cc(=O)[nH]c(=S)[nH]1 [METHYLTHIOURACIL]	> 20 µM	> 20 µM
C=C1CCC2C(CC2(C)C)C(=O)CCC1O (stereo not drawn) [ISOKOBUSONE]	> 20 µM	> 20 µM
Oc1noc2c1CCNC2 [GABOXADOL]	> 20 µM	> 20 µM
Cc1c(Nc2ncccc2C(=O)O)cccc1C(F)(F)F [FLUNIXIN]	> 20 µM	> 20 µM
CCN(CC)CC(=O)OCC(=O)C1(O)CCC2C3CCC4=CC(=O)CCC4(C)C3C(O)CC21C (stereo not drawn)	> 20 µM	> 20 µM
NC(=O)N1CCC(CC(=O)N2CCC([C@H]3c4ncc(Br)cc4CCc4cc(Cl)cc(Br)c43)CC2)CC1 [LONAFARNIB]	> 20 µM	> 20 µM
C#C[C@]1(OC(C)=O)CC[C@H]2[C@@H]3CCC4=CC(=O)CC[C@@H]4[C@H]3CC[C@@]21C [NORETHINDRONE ACETATE]	> 20 µM	> 20 µM
c1ccc([C@@H]2CN=C3NCCN32)cc1	> 20 µM	> 20 µM
NC(C=O)C(O)C(O)C(O)CO (stereo not drawn)	> 20 µM	> 20 µM
CC(C)(CO)[C@@H](O)C(=O)NCCC(=O)O [PANTOTHENIC ACID]	> 20 µM	> 20 µM
CNCC(O)c1cccc(NS(C)(=O)=O)c1 (stereo not drawn) [AMIDEPHRINE MESYLATE]	> 20 µM	> 20 µM
CN(C)CCSc1nc2ccccc2cc1-c1ccccc1	> 20 µM	> 20 µM
COc1cccc([C@H]2O[C@H](CC(=O)N3CCC(CC(=O)O)CC3)C(=O)N(CC(C)(C)COC(C)=O)c3ccc(Cl)cc32)c1OC [LAPAQUISTAT ACETATE]	> 20 µM	> 20 µM
N#CC(CCN1CCC(C(=O)O)(c2ccccc2)CC1)(c1ccccc1)c1ccccc1 [DIFENOXIN]	> 20 µM	> 20 µM
CNC(CC(=O)O)C(=O)O (stereo not drawn)	> 20 µM	> 20 µM
OC(CCN1CCCCC1)(c1ccccc1)C1C[C@@H]2C=C[C@H]1C2 (stereo partly drawn)	> 20 µM	> 20 µM
CN(C)c1cc2c(cc1Sc1nc3c(N)nccc3n1CCNCC(C)(C)C)OCO2 [CUDC-305]	> 20 µM	> 20 µM
CCC(=O)C(c1ccccc1)(c1ccccc1)C(C)CN(C)C (stereo not drawn) [ISOMETHADONE]	> 20 µM	> 20 µM

Compound	IC50	IC50 (read-out: pIC50 (converted))
COc1cccc(N2CCN(C3=Nc4c(F)cccc4C(CC(=O)O)N3c3cc(C(F)(F)F)ccc3OC)CC2)c1 (stereo not drawn)	> 20 µM	> 20 µM
CC(=O)c1ccc2c(c1)[C@@H]1C=CC[C@@H]1[C@H](c1cc3c(cc1Br)OCO3)N2	> 20 µM	> 20 µM
O=C(Nc1ccc(Cl)c(S(=O)(=O)N2CCNCC2)c1O)Nc1cccc(F)c1Cl [ELUBRIXIN]	> 20 µM	> 20 µM
CCOC(=O)Nc1ccc(SC[C@H]2CO[C@](Cn3ccnc3)(c3ccc(OC)cc3)O2)cc1	> 20 µM	> 20 µM
OCCOCCN1CCN(C(c2ccccc2)c2ccc(Cl)cc2)CC1 (stereo not drawn) [HYDROXYZINE]	> 20 µM	> 20 µM
CN(Cc1ccc(C(C)(C)C)cc1)Cc1cccc2ccccc12 [BUTENAFINE]	> 20 µM	> 20 µM
CCOC(=O)C1=C(COCCN)NC(C)=C(C(=O)OC)C1c1ccccc1Cl (stereo not drawn) [AMLODIPINE]	> 20 µM	> 20 µM
NS(=O)(=O)c1cc2c(cc1C(F)(F)F)NC(Cc1ccccc1)NS2(=O)=O (stereo not drawn) [BENDROFLUMETHIAZIDE]	> 20 µM	> 20 µM
O=C(O)CC[N+](=O)[O-]	> 20 µM	> 20 µM
NC(=O)C1CC2(NC(=O)NC2=O)c2cc(F)ccc2O1 (stereo not drawn)	> 20 µM	> 20 µM
Clc1ccc(CCC(Cn2ccnc2)Sc2c(Cl)cccc2Cl)cc1 (stereo not drawn) [BUTOCONAZOLE]	> 20 µM	> 20 µM
O=C(O)/C=C\C(=O)O [MALEIC ACID]	> 20 µM	> 20 µM
C=C[C@@]1(C)CC(=O)[C@@]2(O)[C@](C)(O1)[C@@H](OC(C)=O)[C@@H](OC(=O)CCN(C)C)C1C(C)(C)CC[C@H](O)[C@@]12C (stereo partly drawn)	> 20 µM	> 20 µM
CC(C)C(NC(=O)C(CC(=O)O)NC(=O)C(CCCCN)NC(=O)C(N)CCCNC(=N)N)C(=O)NC(Cc1ccc(O)cc1)C(=O)O (stereo not drawn) (H-RKDVY-OH; configuration not given here)	> 20 µM	> 20 µM
CC1=C(C)C(=O)C(C(CCCCCC(=O)O)c2ccccc2)=C(C)C1=O (stereo not drawn) [SERATRODAST]	> 20 µM	> 20 µM
CCCCCN(CCCCC)C(=O)C(CCC(=O)O)NC(=O)c1ccc(Cl)c(Cl)c1 (stereo not drawn) [LORGLUMIDE]	> 20 µM	> 20 µM
CC1=C(C)C(=O)C(CCCCC#CCCCC#CCO)=C(C)C1=O [DOCEBENONE]	> 20 µM	> 20 µM
CCCn1c(=O)c2nc(C34CC5CC(CC(C5)C3)C4)[nH]c2n(CCC)c1=O	> 20 µM	> 20 µM
NC(=O)Nc1ccc(S(=O)(=O)c2ccc(N)cc2)cc1 [AMIDAPSONE]	> 20 µM	> 20 µM
C[C@@H](O)CCCCn1c(=O)c2c(ncn2C)n(C)c1=O [LISOFYLLINE]	> 20 µM	> 20 µM
